Patent US7063977B2, “Enzymatic resolution of t-butyl taxane derivatives” (Bristol-Myers Squibb Company, priority 2001, dated 2006)
Read-outs that look alike come from different tables or passages of the source.

Assays:
tumors in mice = settings: oral administration; AACR 1999 abstract 1905; cited from earlier work
human tumor xenografts [1] = settings: oral; xenografts implanted in athymic mice
human tumor xenografts [2] = settings: oral; xenografts implanted in athymic rates
[3] = oral administration; Eiseman et al., Suffness et al., quoted from WO 98/53811; cited from earlier work
[4] = up to 160 mg/kg/day, Suffness et al.; cited from earlier work
sc M109 = settings: oral, doses as high as 160 mg/kg/inj; toxic doses not reached; cited from earlier work

## CC(=O)O[C@H]1C(=O)[C@@]2(C)[C@H]([C@H](OC(=O)c3ccccc3)[C@]34OC(=O)O[C@H]3[C@H](OC(=O)[C@H](O)[C@H](CC(C)C)NC(=O)OC(C)(C)C)C(C)=C1C4(C)C)[C@]1(OC(C)=O)CO[C@@H]1C[C@@H]2O [IDN-5109]
Tumors in mice
  oral activity against tumors in mice: oral activity

## CC(=O)O[C@H]1C(=O)[C@@]2(C)[C@H]([C@H](OC(=O)c3ccccc3)[C@]3(O)C[C@H](OC(=O)[C@H](O)[C@@H](NC(=O)c4ccccc4)c4ccccc4)C(C)=C1C3(C)C)[C@]1(OC(C)=O)CO[C@@H]1C[C@@H]2O [paclitaxel]
Human tumor xenografts [1]
  activity of orally administered drug against human tumor xenografts: unsuccessful
Human tumor xenografts [2]
  activity of orally administered drug against human tumor xenografts: unsuccessful
[3]
  absorbed when administered orally: less than 1%
[4]
  antitumor activity on oral administration: no evidence of antitumor activity
Sc M109
  efficacy in murine tumor models (sc M109): without signs of any efficacy
